For 23 compounds, TGI and GI50 results are on record in PubChem BioAssay (NCI).

Molecules are shown by their SMILES. Values joined by “and” are separate entries in the source; they are usually repeats but may differ in a detail not shown here. Identical values can stand only once.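 Each compound was tested at five concentrations against cells in 96-well plates for 48 hours. Abbreviation: GI50, concentration required for 50% inhibition of growth. TGI marks complete inhibition of growth.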

Test systems include SK-MEL-2 melanoma; HOP-62 NSCLC; IGROV1 ovarian; A498 renal; T-47D breast; NCI-H23 lung; PC-3 prostate; A549 NSCLC; UO-31 renal; U251 CNS; MCF7 breast.
What all share (assay): DTP human tumour cell line panel, 48 h

For the compound `Cc1ccc2c(c1)C(=C(C#N)C#N)CCCS2(=O)=O`, the TGI with SK-MEL-2 melanoma, in the assay on HOP-62 NSCLC, in the assay with IGROV1 ovarian, in the assay with A498 renal, with T-47D breast and in the assay on NCI-H23 lung was more than 100 µM each time. Moreover, the TGI with PC-3 prostate, in the assay with A549 NSCLC, in the assay with UO-31 renal and in the assay with U251 CNS was more than 100 µM each time.

In the case of `O=C(Nc1ccc(C(F)(F)F)cc1)NC(F)(F)F`, the TGI in the assay on SK-MEL-2 melanoma, in the assay with IGROV1 ovarian, with A498 renal, with T-47D breast, in the assay with NCI-H23 lung and in the assay on PC-3 prostate was more than 100 µM each time. The TGI with A549 NSCLC, in the assay with UO-31 renal and in the assay with U251 CNS was more than 100 µM in each case.

For `CSc1ncnc2c1ncn2CCC(=O)O`, the TGI in the assay with HOP-62 NSCLC, in the assay on IGROV1 ovarian, in the assay on A498 renal, in the assay on NCI-H23 lung, with PC-3 prostate and in the assay with A549 NSCLC was more than 100 µM each time. Moreover, the TGI with UO-31 renal and in the assay with MCF7 breast was more than 100 µM in each case.

Consider `COc1cccc2c1c1ccc3c(c1n2C)C(=O)C=CC3=O`, for which the TGI was 33 µM in the assay with SK-MEL-2 melanoma; more than 100 µM in the assay with HOP-62 NSCLC; more than 100 µM with IGROV1 ovarian; more than 100 µM in the assay with A498 renal; 32.2 µM with NCI-H23 lung; more than 100 µM in the assay on A549 NSCLC. In addition, the TGI with UO-31 renal is 44.2 µM; with U251 CNS, more than 100 µM.

For `CC(=O)c1nc2ccccc2n1C(C)C(=O)c1ccccc1` (configuration not stated), the TGI with HOP-62 NSCLC, with IGROV1 ovarian, in the assay with A498 renal, in the assay on NCI-H23 lung, in the assay on PC-3 prostate and in the assay on A549 NSCLC was more than 100 µM throughout. For the same compound, the TGI with UO-31 renal, with U251 CNS and in the assay on MCF7 breast was more than 100 µM in each case.

Consider `OC1(C(Sc2cc(C(F)(F)F)cc(C(F)(F)F)c2)Sc2cc(C(F)(F)F)cc(C(F)(F)F)c2)C=CCCC1` (configuration not stated), for which the TGI worked out at 11.4 µM in the assay on HOP-62 NSCLC; 8.56 µM in the assay with IGROV1 ovarian; 4.58 µM with A498 renal; 4.26 µM in the assay with T-47D breast; 8.66 µM in the assay on NCI-H23 lung; 6.1 µM with A549 NSCLC. The TGI with UO-31 renal is 3.66 µM; in the assay with MCF7 breast it was 4.58 µM.

Regarding `COc1ccc(CNc2cnc3cc(N)ccc3n2)cc1`, the TGI in the assay with SK-MEL-2 melanoma, in the assay on HOP-62 NSCLC, in the assay with IGROV1 ovarian, in the assay with NCI-H23 lung, with A549 NSCLC and with UO-31 renal was more than 100 µM each time. Also, the TGI in the assay on U251 CNS was more than 100 µM.

Consider `O=C1/C(=C/c2cccc(Cl)c2)CCCc2ccccc21`, for which the TGI in the assay on SK-MEL-2 melanoma was 31.2 µM; with HOP-62 NSCLC, 49 µM; in the assay with IGROV1 ovarian it was 31.8 µM; in the assay on NCI-H23 lung, 36 µM; with PC-3 prostate, 38.3 µM; in the assay with A549 NSCLC, more than 100 µM. In addition, the total growth inhibition concentration (TGI) was found to be 30.1 µM in the assay on UO-31 renal, 29.4 µM in the assay on U251 CNS and 27.4 µM with MCF7 breast.

As for `C=C(C)C12CC3CC(/C(=N/O)C(C1)/C3=N\O)[C@@]2(C)O` (some centres not stated), the TGI in the assay on SK-MEL-2 melanoma, in the assay with HOP-62 NSCLC, with IGROV1 ovarian, in the assay on NCI-H23 lung, in the assay on A549 NSCLC and in the assay with UO-31 renal was more than 100 µM in each case. Further, the TGI in the assay on U251 CNS was more than 100 µM.

As for `COC(=O)[C@]12CC3C=CC1N(C3)C(CBr)c1c2n(S(=O)(=O)c2ccccc2)c2ccccc12` (some centres not stated), the TGI with SK-MEL-2 melanoma, in the assay on HOP-62 NSCLC, with IGROV1 ovarian, with NCI-H23 lung, in the assay on PC-3 prostate and in the assay with A549 NSCLC was more than 100 µM each time. The TGI in the assay with UO-31 renal, in the assay on U251 CNS and in the assay with MCF7 breast was more than 100 µM each time.

As to `CSc1nc(-c2ccc(Cl)cc2)c(C#N)c(=O)n1C1OC(COC(C)=O)C(OC(C)=O)C(OC(C)=O)C1OC(C)=O` (configuration not stated), the TGI was more than 100 µM in the assay on SK-MEL-2 melanoma; 57.1 µM and > 100 µM in the assay on HOP-62 NSCLC; more than 100 µM in the assay with IGROV1 ovarian; 38.9 µM and > 100 µM in the assay with A498 renal; more than 100 µM in the assay with NCI-H23 lung; more than 100 µM in the assay on A549 NSCLC. Moreover, the TGI in the assay with UO-31 renal is 23.5 µM and > 100 µM; in the assay on U251 CNS, 71.6 µM and > 100 µM. Besides, the GI50 in the assay on HOP-62 NSCLC is 23.6 µM and > 100 µM; in the assay on A498 renal it was 17.6 µM and > 100 µM; in the assay with NCI-H23 lung it was 22.2 µM and > 100 µM; in the assay on UO-31 renal it was 10.4 µM and > 100 µM; in the assay with U251 CNS, 20.6 µM and > 100 µM.

`Cc1ccc(C)n1-c1ccccc1C1C=Cn2c(=O)nnc3c(OC(C)C)c(OC(C)C)c(O)c1c32` (configuration not stated): the TGI in the assay with SK-MEL-2 melanoma, with HOP-62 NSCLC, with IGROV1 ovarian, in the assay on A498 renal, with NCI-H23 lung and with PC-3 prostate was more than 100 µM each time. Further, the concentration for total growth inhibition (TGI) with A549 NSCLC, in the assay with UO-31 renal, in the assay on U251 CNS and in the assay on MCF7 breast was more than 100 µM each time.

Turning to `OC12c3ccccc3C1CCCCC2N1CCCC1` (configuration not stated), the TGI in the assay on SK-MEL-2 melanoma, in the assay on HOP-62 NSCLC, in the assay with NCI-H23 lung, in the assay with A549 NSCLC, with UO-31 renal and in the assay on U251 CNS was more than 100 µM in each case.

Consider `CSC1=N/C(=C\c2ccc(Cl)cc2)C(=O)N1CN1CCCCC1`, for which the TGI in the assay with SK-MEL-2 melanoma was more than 100 µM; in the assay on HOP-62 NSCLC, more than 100 µM; in the assay on IGROV1 ovarian it was 93.2 µM; with A498 renal, more than 100 µM; with NCI-H23 lung, more than 100 µM; with PC-3 prostate, more than 100 µM. Further, the TGI was more than 100 µM in the assay on A549 NSCLC, more than 100 µM in the assay on UO-31 renal, more than 100 µM in the assay with U251 CNS and 82.8 µM in the assay with MCF7 breast.

Turning to `CC(=O)Nc1ccc2c3c(cc(O)c2c1)N(C(=O)CCCC(=O)N1CC(CCl)c2c1cc(O)c1cc(NC(C)=O)ccc21)CC3CCl` (configuration not stated), the TGI in the assay on SK-MEL-2 melanoma is less than 0.0152 µM; with HOP-62 NSCLC it was 0.0596 µM; in the assay with IGROV1 ovarian, more than 100 µM; in the assay with T-47D breast, less than 0.01 µM; in the assay with NCI-H23 lung, 0.0325 µM; in the assay on PC-3 prostate, 0.421 µM. The concentration for total growth inhibition (TGI) is 0.0604 µM in the assay on UO-31 renal and less than 0.0139 µM in the assay on U251 CNS.

Regarding `COc1ccccc1Nc1nc2c([nH]1)c(=O)n(C)c(=O)n2C`, the concentration for total growth inhibition (TGI) with HOP-62 NSCLC, in the assay on IGROV1 ovarian, in the assay on T-47D breast, with NCI-H23 lung, with PC-3 prostate and in the assay on A549 NSCLC was more than 10 µM throughout. This compound also returned a concentration for total growth inhibition (TGI) in the assay on MCF7 breast of more than 10 µM.

As for `CC(C)(O)C(O)COc1c2c(cc3oc(=O)ccc13)OCO2` (configuration not stated), the TGI in the assay on SK-MEL-2 melanoma, with HOP-62 NSCLC, with IGROV1 ovarian, in the assay on A498 renal, with NCI-H23 lung and in the assay on A549 NSCLC was more than 100 µM each time. Moreover, the TGI in the assay with UO-31 renal and in the assay on U251 CNS was more than 100 µM each time.

In the case of `COc1cc(/C=C2\C(=O)N(C(=O)Cc3ccccc3)N=C2C)cc(OC)c1OC`, the TGI with SK-MEL-2 melanoma, with HOP-62 NSCLC, in the assay on NCI-H23 lung, in the assay on A549 NSCLC and in the assay on UO-31 renal was more than 100 µM throughout.

Turning to `CC(C)CC(NC(=O)C(C)(CI)Cc1ccccc1)C(=O)Nc1ccccc1` (configuration not stated), the TGI in the assay with SK-MEL-2 melanoma, in the assay on IGROV1 ovarian, in the assay with A498 renal, with NCI-H23 lung, with PC-3 prostate and in the assay on A549 NSCLC was more than 100 µM throughout. Besides, the TGI in the assay with UO-31 renal, with U251 CNS and in the assay on MCF7 breast was more than 100 µM throughout.

For `c1csc(-c2nn3c(C45CC6CC(CC(C6)C4)C5)nnc3s2)c1`, the TGI in the assay with SK-MEL-2 melanoma, with HOP-62 NSCLC, in the assay with IGROV1 ovarian, with A498 renal, in the assay with T-47D breast and in the assay on NCI-H23 lung was more than 100 µM throughout. Moreover, the TGI with PC-3 prostate, in the assay on A549 NSCLC, in the assay on UO-31 renal and in the assay with U251 CNS was more than 100 µM throughout.

For the compound `Cc1ccc(CC(Cc2ccccc2C)C(=O)O)c(C(=O)O)c1` (configuration not stated), the TGI in the assay on SK-MEL-2 melanoma, in the assay on HOP-62 NSCLC, in the assay on IGROV1 ovarian, in the assay on A498 renal, with NCI-H23 lung and in the assay on PC-3 prostate was more than 100 µM throughout. Further, the TGI in the assay with A549 NSCLC, in the assay with UO-31 renal, in the assay on U251 CNS and with MCF7 breast was more than 100 µM each time.

With `COc1ccc2c3c1OC1C(F)C=CC4(O)C(C2)NCCC314` (configuration not stated), the TGI stood at 6.65 µM with SK-MEL-2 melanoma; 7.13 µM with HOP-62 NSCLC; 20.3 µM in the assay with IGROV1 ovarian; 15.6 µM in the assay on A498 renal; 6.64 µM in the assay on NCI-H23 lung; 6.92 µM in the assay on PC-3 prostate. Also, the TGI in the assay on A549 NSCLC worked out at 23.1 µM; in the assay with UO-31 renal, 4.62 µM; with U251 CNS, 6.59 µM; in the assay with MCF7 breast, 5.25 µM.

As to `COc1cc(C2C(Cl)C(=O)N2NC(=O)Cc2ccccc2)cc(Br)c1O` (configuration not stated), the total growth inhibition concentration (TGI) in the assay with SK-MEL-2 melanoma, in the assay on HOP-62 NSCLC, with IGROV1 ovarian, in the assay on NCI-H23 lung, with A549 NSCLC and in the assay on UO-31 renal was more than 100 µM in each case. This compound also gave a TGI with U251 CNS of more than 100 µM.
